Laboratory results taken from PubChem BioAssay (NCI).
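Exposure lasted 48 hours, with cells grown in 96-well plates and compounds tested at five concentrations. At the GI50, growth is halved. TGI is the concentration that stops growth completely.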

Columns and labels:
Assay in all cases: DTP human tumour cell line panel, 48 h
MALME-3M melanoma = test system: MALME-3M melanoma
NCI-H23 lung = test system: NCI-H23 lung
TK-10 renal = test system: TK-10 renal
HCT-116 colon = test system: HCT-116 colon
IGROV1 ovarian = test system: IGROV1 ovarian
HOP-62 NSCLC = test system: HOP-62 NSCLC
DU-145 prostate = test system: DU-145 prostate
EKVX NSCLC = test system: EKVX NSCLC
UACC-257 melanoma = test system: UACC-257 melanoma
HL-60(TB) leukemia = test system: HL-60(TB) leukemia
SK-MEL-2 melanoma = test system: SK-MEL-2 melanoma
SW-620 colon = test system: SW-620 colon
MCF7 breast = test system: MCF7 breast
SNB-19 CNS = test system: SNB-19 CNS
HCT-15 colon = test system: HCT-15 colon
CCRF-CEM leukemia = test system: CCRF-CEM leukemia
HOP-92 NSCLC = test system: HOP-92 NSCLC
PC-3 prostate = test system: PC-3 prostate
A549 NSCLC = test system: A549 NSCLC
SK-MEL-28 melanoma = test system: SK-MEL-28 melanoma
K-562 leukemia = test system: K-562 leukemia
SN12C renal = test system: SN12C renal
M14 melanoma = test system: M14 melanoma
MOLT-4 leukemia = test system: MOLT-4 leukemia
RXF 393 renal = test system: RXF 393 renal
CAKI-1 renal = test system: CAKI-1 renal
HT29 colon = test system: HT29 colon
NCI/ADR-RES ovarian = test system: NCI/ADR-RES ovarian
MDA-MB-231 breast = test system: MDA-MB-231 breast
SK-OV-3 ovarian = test system: SK-OV-3 ovarian
LOX IMVI melanoma = test system: LOX IMVI melanoma
SF-539 CNS = test system: SF-539 CNS
MDA-MB-435 = test system: MDA-MB-435
HCC-2998 colon = test system: HCC-2998 colon
NCI-H522 lung = test system: NCI-H522 lung
KM12 colon = test system: KM12 colon
SR leukemia = test system: SR leukemia
OVCAR-3 ovarian = test system: OVCAR-3 ovarian
COLO 205 colon = test system: COLO 205 colon
OVCAR-5 ovarian = test system: OVCAR-5 ovarian
UACC-62 melanoma = test system: UACC-62 melanoma
A498 renal = test system: A498 renal
SF-268 CNS = test system: SF-268 CNS
U251 CNS = test system: U251 CNS
OVCAR-4 ovarian = test system: OVCAR-4 ovarian
HS 578T breast = test system: HS 578T breast
ACHN renal = test system: ACHN renal
RPMI-8226 leukemia = test system: RPMI-8226 leukemia
UO-31 renal = test system: UO-31 renal
SK-MEL-5 melanoma = test system: SK-MEL-5 melanoma
T-47D breast = test system: T-47D breast
NCI-H460 lung = test system: NCI-H460 lung
SNB-75 CNS = test system: SNB-75 CNS
SF-295 CNS = test system: SF-295 CNS
BT-549 breast = test system: BT-549 breast
OVCAR-8 ovarian = test system: OVCAR-8 ovarian
786-0 renal = test system: 786-0 renal
NCI-H226 lung = test system: NCI-H226 lung

CCCn1cnc2c(c1=N)C(c1ccc(OC)cc1)c1sc3c(CC)cccc3c1O2 (stereo not given)
GI50 (MALME-3M melanoma): 726 nM | TGI (MALME-3M melanoma): 21700 nM | GI50 (NCI-H23 lung): 1270 nM | TGI (NCI-H23 lung): 18100 nM | GI50 (TK-10 renal): 5130 nM | TGI (TK-10 renal): 32400 nM | GI50 (HCT-116 colon): 382 nM | TGI (HCT-116 colon): 4770 nM | GI50 (IGROV1 ovarian): 612 nM | TGI (IGROV1 ovarian): 29400 nM | GI50 (HOP-62 NSCLC): 553 nM | TGI (HOP-62 NSCLC): 14800 nM | GI50 (DU-145 prostate): 665 nM | TGI (DU-145 prostate): 13700 nM | GI50 (EKVX NSCLC): 941 nM | TGI (EKVX NSCLC): 20000 nM | GI50 (UACC-257 melanoma): 15000 nM | TGI (UACC-257 melanoma): > 100000 nM | GI50 (HL-60(TB) leukemia): 279 nM | TGI (HL-60(TB) leukemia): 1030 nM | GI50 (SK-MEL-2 melanoma): 608 nM | TGI (SK-MEL-2 melanoma): 14700 nM | GI50 (SW-620 colon): 515 nM | TGI (SW-620 colon): 14800 nM | GI50 (MCF7 breast): 345 nM | TGI (MCF7 breast): 11600 nM | GI50 (SNB-19 CNS): 478 nM | TGI (SNB-19 CNS): 14600 nM | GI50 (HCT-15 colon): 441 nM | TGI (HCT-15 colon): 6210 nM | GI50 (CCRF-CEM leukemia): 421 nM | GI50 (HOP-92 NSCLC): 1190 nM | TGI (HOP-92 NSCLC): 11200 nM | GI50 (PC-3 prostate): 551 nM | TGI (PC-3 prostate): 16900 nM | GI50 (A549 NSCLC): 827 nM | TGI (A549 NSCLC): 20900 nM | GI50 (SK-MEL-28 melanoma): 2140 nM | TGI (SK-MEL-28 melanoma): 36700 nM | GI50 (K-562 leukemia): 338 nM | TGI (K-562 leukemia): > 31600 nM | GI50 (SN12C renal): 867 nM | TGI (SN12C renal): 7600 nM | GI50 (M14 melanoma): 389 nM | TGI (M14 melanoma): 6180 nM | GI50 (MOLT-4 leukemia): 505 nM | TGI (MOLT-4 leukemia): 5780 nM | GI50 (RXF 393 renal): 272 nM | TGI (RXF 393 renal): 883 nM | GI50 (CAKI-1 renal): 476 nM | TGI (CAKI-1 renal): 20600 nM | GI50 (HT29 colon): 512 nM | TGI (HT29 colon): 9090 nM | GI50 (NCI/ADR-RES ovarian): 389 nM | TGI (NCI/ADR-RES ovarian): 10000 nM | GI50 (MDA-MB-231 breast): 1360 nM | TGI (MDA-MB-231 breast): 13000 nM | GI50 (SK-OV-3 ovarian): 818 nM | TGI (SK-OV-3 ovarian): 26900 nM | GI50 (LOX IMVI melanoma): 685 nM | TGI (LOX IMVI melanoma): 5430 nM | GI50 (SF-539 CNS): 334 nM | TGI (SF-539 CNS): 1400 nM | GI50 (MDA-MB-435): 196 nM | TGI (MDA-MB-435): 479 nM | GI50 (HCC-2998 colon): 1300 nM | TGI (HCC-2998 colon): 6600 nM | GI50 (NCI-H522 lung): 346 nM | TGI (NCI-H522 lung): 4940 nM | GI50 (KM12 colon): 445 nM | TGI (KM12 colon): 24900 nM | GI50 (SR leukemia): 319 nM | TGI (SR leukemia): 3230 nM | GI50 (OVCAR-3 ovarian): 378 nM | TGI (OVCAR-3 ovarian): 2970 nM | GI50 (COLO 205 colon): 844 nM | TGI (COLO 205 colon): 8270 nM | GI50 (OVCAR-5 ovarian): 2590 nM | TGI (OVCAR-5 ovarian): 17900 nM | GI50 (UACC-62 melanoma): 422 nM | TGI (UACC-62 melanoma): 19100 nM | GI50 (A498 renal): 334 nM | TGI (A498 renal): 1410 nM | GI50 (SF-268 CNS): 702 nM | TGI (SF-268 CNS): 26100 nM | GI50 (U251 CNS): 438 nM | TGI (U251 CNS): 12500 nM | GI50 (OVCAR-4 ovarian): 1350 nM | TGI (OVCAR-4 ovarian): 23500 nM | GI50 (HS 578T breast): 384 nM | TGI (HS 578T breast): 5760 nM | GI50 (ACHN renal): 725 nM | TGI (ACHN renal): 17700 nM | GI50 (RPMI-8226 leukemia): 375 nM | TGI (RPMI-8226 leukemia): 2560 nM | GI50 (UO-31 renal): 714 nM | TGI (UO-31 renal): 29900 nM | GI50 (SK-MEL-5 melanoma): 578 nM | TGI (SK-MEL-5 melanoma): 7280 nM | GI50 (T-47D breast): 518 nM | TGI (T-47D breast): > 49200 nM | GI50 (NCI-H460 lung): 378 nM | TGI (NCI-H460 lung): 4450 nM | GI50 (SNB-75 CNS): 220 nM | TGI (SNB-75 CNS): 1090 nM | GI50 (SF-295 CNS): 392 nM | TGI (SF-295 CNS): 7240 nM | GI50 (BT-549 breast): 691 nM | TGI (BT-549 breast): 16000 nM | GI50 (OVCAR-8 ovarian): 1010 nM | TGI (OVCAR-8 ovarian): 15800 nM | GI50 (786-0 renal): 534 nM | TGI (786-0 renal): 12800 nM | GI50 (NCI-H226 lung): 964 nM | TGI (NCI-H226 lung): 11200 nM
